{
  "source": "patent US20100278940A1",
  "about": "“Calcium supplements” (HL DISTRIBUTION COMPANY, priority 2005, published 2010)",
  "key": {"[1]": {"test_system": "osteoblastic hFOB 1.19 cells", "assay": "MDA assay (H2O2-induced oxidative stress, lipid peroxidation)", "assay_type": "cell-based, human", "details": "24 h", "protocol": "(§1) These alterations in temperature were required because hFOB 1.19 cells were conditionally immortalized with a gene encoding a temperature-sensitive mutant (tsA58) of SV40 large T antigen.\n(§2) AC was dissolved in HCl:H2O mixture at the ratio of 13:2. Calcium carbonate and calcium citrate were dissolved in distilled water. The stock solution of vitamin D3 was dissolved in ethyl alcohol as per the manufacturer's instructions and directly added in the medium to achieve its final concentration. […] The amount of calcium present in 0.5 mg of AC is 0.15 mg. […] Finally, the pH was maintained same in all the preparations.\nAfter 24 h of treatment with compounds in the presence and absence of H2O2 (0.3 mM), the cells were washed with cold PBS, scraped, and homogenized in lysis buffer. […] of cell lysate was used for measuring the MDA levels by following the manufacturer's instructions. […] In this study, MDA standard was used to construct a standard curve.\n(§3) Data were expressed as the mean±SEM of 3-6 independent experiments. Statistical comparisons of the results were made using one way analysis of variance (ANOVA). Significant differences (p≦0.05) between the means of control and test group were analyzed by the Neuman-Keuls multiple comparison test."}, "[2]": {"test_system": "Human fetal osteoblast cells (hFOB 1.19)", "assay": "DNA synthesis assay ([3H] thymidine incorporation)", "assay_type": "cell-based", "details": "4 days treatment, without vitamin D3; mean±SEM", "protocol": "as §1, §2, §3"}, "[3]": {"test_system": "Human fetal osteoblast cells (hFOB 1.19)", "assay": "Mineralization/calcium deposition assay (Alizarin Red S)", "assay_type": "cell-based", "details": "2 days treatment, without vitamin D3; mean±SEM", "protocol": "as §1, §2, §3"}, "[4]": {"test_system": "Human fetal osteoblast cells (hFOB 1.19)", "assay": "Alkaline phosphatase (ALP) activity in osteoblast cells", "assay_type": "cell-based", "details": "4 days; AC 0.5 mg/ml, 0.15 mg/ml calcium from carbonate or citrate; mean±SEM", "protocol": "as §1, §2, §3"}, "[5]": {"test_system": "Human fetal osteoblast cells (hFOB 1.19)", "assay": "Immunocytochemistry for proliferating cell nuclear antigen (PCNA) expression", "assay_type": "cell-based", "details": "4 days treatment, without vitamin D3", "protocol": "Human fetal osteoblast cells (hFOB 1.19-ATCC number: CRL-11372) were seeded at a density of 10,000 cells cm^−2 in a mixture of Dulbecco's modified eagle medium (DMEM) and Ham F12 medium (1:1 ratio) supplemented with 10% fetal bovine serum (FBS) and 0.3 mg/ml […]. Osteoblast cells were cultured in a humidified atmosphere of 5% CO2 at 33.5° C. for cell attachment and proliferation and at 39.5° C. for other assays. These alterations in temperature were required because hFOB 1.19 cells were conditionally immortalized with a gene encoding a temperature-sensitive mutant (tsA58) of SV40 large T antigen.\nAC was dissolved in HCl:H2O mixture at the ratio of 13:2. Calcium carbonate and calcium citrate were dissolved in distilled water. The stock solution of vitamin D3 was dissolved in ethyl alcohol as per the manufacturer's instructions and directly added in the medium to achieve its final concentration. […] The same dose was used for further experiments in the present study. The amount of calcium present in 0.5 mg of AC is 0.15 mg. […] Finally, the pH was maintained same in all the preparations.\nTo evaluate proliferative activity, immunohistochemistry for PCNA was performed after 4 days treatment of AC, calcium carbonate and calcium citrate. The experiment was done by following the instructions of PCNA staining kit (Invitrogen). […]"}, "[6]": {"details": "in presence of 0.3 mM H2O2, mean±SEM"}},
  "data": [
    {"smiles": "OO", "note": "[Example H2O2, H2O2]", "values": [
      {"measurement": "MDA levels", "setting": "[1]; 0.3 mM H2O2 alone, control 0.6768±0.084", "result": "1.992 ± 0.116", "unit": "µM"}
    ]},
    {"smiles": "O=C([O-])[O-].[Ca+2]", "note": "[calcium carbonate, Calcium carbonate]", "values": [
      {"measurement": "[3H] thymidine incorporation counts (DNA synthesis)", "setting": "[2]", "result": "62.8±11.6", "unit": "cpm"},
      {"measurement": "calcium deposition (mineralization)", "setting": "[3]", "result": "0.1810±0.0115", "unit": "OD at 561 nm"},
      {"measurement": "ALP activity", "setting": "[4]", "result": "372.2±15.7", "unit": "nmol/mg protein"},
      {"measurement": "MDA levels", "setting": "[1]; [6]", "result": "1.263 ± 0.062", "unit": "µM"}
    ]},
    {"smiles": "O=C([O-])CC(O)(CC(=O)[O-])C(=O)[O-].O=C([O-])CC(O)(CC(=O)[O-])C(=O)[O-].[Ca+2].[Ca+2].[Ca+2]", "note": "[calcium citrate]", "values": [
      {"measurement": "[3H] thymidine incorporation counts (DNA synthesis)", "setting": "[2]", "result": "45±9.9", "unit": "cpm"},
      {"measurement": "calcium deposition (mineralization)", "setting": "[3]", "result": "0.1267±0.0054", "unit": "OD at 561 nm"},
      {"measurement": "ALP activity", "setting": "[4]", "result": "302.1±47.8", "unit": "nmol/mg protein"},
      {"measurement": "expression of PCNA", "setting": "[5]", "result": "considerably higher than the control and calcium carbonate-treated cells"},
      {"measurement": "MDA levels", "setting": "[1]; [6]", "result": "1.289 ± 0.109", "unit": "µM"}
    ]}
  ]
}
